Literature values, collected in PMC11956011, “An Amazing 30-Year Journey around the DABO Family: A Medicinal Chemistry Lesson on a Versatile Class of Non-nucleoside HIV-1 Reverse Transcriptase Inhibitors” (Journal of Medicinal Chemistry, 2025).
In brackets after ≈: the same amount, converted by molar mass. Read-outs that look alike come from different tables or passages of the source. Each block holds one compound with its values, some of them ahead of it.

Tests used:
[1] = tested on: Y181C HIV-1 mutant strain; conditions: for Fold-resistance Y181C (EC50): Fig 10, in brackets
[2] = tested on: E138K HIV-1 mutant strain
HIV-1 [3] = conditions: for SI: Fig 10
Vero cells = tested on: Vero cells; set-up: method as in doi:10.1016/0223-5234(92)90009-P; conditions: Fig 2
C8166 cells = tested on: C8166 cells; set-up: method as in doi:10.1016/0223-5234(92)90009-P; conditions: Fig 2
[4] = tested on: HIV-1 RT (WT, recombinant)
HIV-1 [5] = tested on: HIV-1; set-up: method as in PMID 8602869; conditions: read-out: syncytia reduction assay in MT-2-infected cells IC50
HIV-1 [6] = tested on: HIV-1; set-up: method as in PMID 8602869; conditions: day 3 and 4 p.i.; read-out: p24 inhibition in PBMC-infected cells IC50
HIV-1IIIB = conditions: for ED50: HIV-1 IIIB: Fig 4
N119 (Y181C mutant) = conditions: for ED50: HIV-1 119: Fig 4; for Fold-resistance HIV-1 119 (ED50): Fig 4, in parentheses; for EC50: Fig 9
mock-infected cells = conditions: for CD50: Fig 4
HIV-1 NL4-3 wt = conditions: read-out: EC50: NL4-3 wt
[7] = tested on: K103N HIV-1 mutant strain; conditions: for Fold-resistance K103N (EC50): Fig 10, in brackets
[8] = tested on: Y188L HIV-1 mutant strain
[9] = tested on: IRLL98 clinical isolate (K101Q, Y181C, G190A); conditions: Fig 9
Y181I HIV-1 RT = conditions: for Fold-resistance Y181I RT (ID50): Fig 10, in brackets
[10] = tested on: EFV^R (K103R + V179D + P225H mutant); conditions: Fig 9
A17 (Y181C+K103N) = conditions: Fig 9
L100I HIV-1 RT = conditions: for ID50: L100I: Fig 10; for Fold-resistance L100I RT (ID50): Fig 10, in brackets
[11] = tested on: clinical isolates KM018, TC-2, and WAN; conditions: read-out: EC50 against clinical isolates KM018, TC-2, and WAN
[12] = more water-soluble
[13] = rats
HBV = conditions: HBV-infected cells; read-out: HBV DNA IC50
malaria = tested on: malaria; set-up: method as in PMID 31191911
[14] = tested on: colon carcinoma HT-29 cells
[15] = tested on: non-small-cell lung cancer HOP-92 cells; set-up: method as in PMID 21849221; conditions: at 10 μM

SMILES: CCc1c(Cc2c(F)cccc2Cl)nc(SCC(=O)Nc2ccccc2)[nH]c1=O [A compound similar to 105–108]
EC50 [1]: 2130 nM
EC50 [2]: 2030 nM
EC50 (HIV-1 [3]; read-out: EC50 against wild-type): 190 nM

SMILES: CCCCOc1nc(Cc2ccc(OC)cc2)cc(=O)[nH]1 [compound 5]
TD50 Vero (Vero cells): 100 µg/mL
TD50 C8166 (C8166 cells): 100 µg/mL

SMILES: Nc1cc(Cl)nc(SCc2ccccc2)n1 [compound 19, 4-amino-2-(benzylthio)-6-chloropyrimidine]
IC50 ([4]; Fig 4, read-out: RT assay IC50): 50000 to 80000 nM
IC50 (HIV-1 [5]): 400 to 4000 nM
IC50 (HIV-1 [6]): 100 to 1000 nM
cytotoxicity in MT-2-infected cells (MT-2 cells): > 16 µM
cytotoxicity in PBMC-infected cells (PBMC): > 16 µM

SMILES: CCc1c(Cc2cc(C)cc(C)c2)n2c(nc1=O)SCCOC2 [compound 25]
ED50: HIV-1 IIIB (HIV-1IIIB): 600 nM
ED50: HIV-1 119 (N119 (Y181C mutant)): 19000 nM
Fold-resistance HIV-1 119 (ED50) (N119 (Y181C mutant)): 32
CD50 (mock-infected cells): > 100 µM

SMILES: CCc1c(Cc2cc(C)cc(C)c2)nc2n(c1=O)COCCS2 [compound 26]
ED50: HIV-1 IIIB (HIV-1IIIB): 1600 nM
ED50: HIV-1 119 (N119 (Y181C mutant)): 6300 nM
Fold-resistance HIV-1 119 (ED50) (N119 (Y181C mutant)): 4
CD50 (mock-infected cells): > 100 µM

SMILES: COc1ccc(CSc2nc(Cc3c(Cl)cccc3Cl)c(C)c(=O)[nH]2)cc1 [compound 76]
EC50 (HIV-1 NL4-3 wt; Fig 9): 7 nM
EC50 ([7]; Fig 9): 4700 nM
EC50 ([8]; Fig 9): > 32000 nM
EC50 [9]: 47 nM
ID50: WT ([4]; Fig 9): 4 nM
ID50: Y181I (Y181I HIV-1 RT; Fig 9): 150000 nM
CC50 (mock-infected cells; Fig 9): 32000 nM

SMILES: COc1ccc(CCSc2nc(Cc3c(Cl)cccc3Cl)c(C)c(=O)[nH]2)cc1 [compound 77]
EC50 (HIV-1 NL4-3 wt; Fig 9): < 0.14 nM
EC50 ([7]; Fig 9): 870 nM
EC50 ([8]; Fig 9): 6900 nM
EC50 [9]: 0.22 nM
ID50: WT ([4]; Fig 9): 26 nM
ID50: Y181I (Y181I HIV-1 RT; Fig 9): 1500 nM
CC50 (mock-infected cells; Fig 9): > 57000 nM

SMILES: COc1ccc(CCCSc2nc(O)c(C)c(Cc3c(Cl)cccc3Cl)n2)cc1 [compound 78]
EC50 (HIV-1 NL4-3 wt; Fig 9): 0.44 nM
EC50 ([7]; Fig 9): > 1000 nM
EC50 ([8]; Fig 9): > 1000 nM
EC50 [9]: 110 nM
ID50: WT ([4]; Fig 9): 37 nM
ID50: Y181I (Y181I HIV-1 RT; Fig 9): 300 nM
CC50 (mock-infected cells; Fig 9): 1000 nM

SMILES: COc1ccc(CSc2nc(O)c(C)c(Cc3c(F)cccc3F)n2)cc1 [compound 79]
EC50 (HIV-1 NL4-3 wt; Fig 9): 26 nM
EC50 ([7]; Fig 9): 690 nM
EC50 ([8]; Fig 9): 10000 nM
EC50 [9]: 690 nM
ID50: WT ([4]; Fig 9): 7 nM
CC50 (mock-infected cells; Fig 9): > 64000 nM

SMILES: Cc1c(O)nc(Sc2ccccc2)nc1Cc1c(F)cccc1F [compound 80]
EC50 (HIV-1 NL4-3 wt; Fig 9): 90 nM
EC50 ([7]; Fig 9): 42500 nM
EC50 ([8]; Fig 9): > 72700 nM
EC50 [9]: 16700 nM
ID50: WT ([4]; Fig 9): 32000 nM
ID50: Y181I (Y181I HIV-1 RT; Fig 9): > 400000 nM
CC50 (mock-infected cells; Fig 9): > 72700 nM

SMILES: Cc1c(O)nc(Sc2ccc(Cl)cc2)nc1Cc1c(F)cccc1F [compound 81]
EC50 (HIV-1 NL4-3 wt; Fig 9): 100 nM
EC50 ([7]; Fig 9): 8010 nM
EC50 ([8]; Fig 9): > 66100 nM
EC50 [9]: > 66100 nM
ID50: WT ([4]; Fig 9): 22000 nM
ID50: Y181I (Y181I HIV-1 RT; Fig 9): > 400000 nM
CC50 (mock-infected cells; Fig 9): > 66100 nM

SMILES: COc1ccncc1Sc1nc(Cc2c(Cl)cccc2Cl)c(C)c(=O)[nH]1 [compound 82]
EC50 (HIV-1 NL4-3 wt; Fig 9): 2720 nM
EC50 ([7]; Fig 9): > 61300 nM
EC50 ([1]; Fig 9): 6520 nM
EC50 ([8]; Fig 9): > 61300 nM
EC50 [9]: 8680 nM
ID50: WT ([4]; Fig 9): 3500 nM
ID50: Y181I (Y181I HIV-1 RT; Fig 9): > 400000 nM
CC50 (mock-infected cells; Fig 9): > 61300 nM

SMILES: Cc1cc(C)cc(Cc2nc(Sc3ccccc3)[nH]c(=O)c2C)c1 [compound 83]
EC50 [10]: 80000 nM
EC50 (N119 (Y181C mutant)): 5000 nM
EC50 (A17 (Y181C+K103N)): > 100000 nM
EC50 (HIV-1 [3]; read-out: EC50: HIV-1 wt, Fig 9): 1700 nM
CC50 (mock-infected cells; Fig 9): > 100000 nM

SMILES: COc1cccc(Sc2nc(Cc3cc(C)cc(C)c3)c(C)c(=O)[nH]2)c1 [compound 84]
EC50 [10]: 100000 nM
EC50 (N119 (Y181C mutant)): 2000 nM
EC50 (A17 (Y181C+K103N)): > 100000 nM
CC50 (mock-infected cells; Fig 9): > 100000 nM

SMILES: Cc1cc(C)cc(Cc2nc(Sc3cccnc3)[nH]c(=O)c2C)c1 [compound 85]
EC50 [10]: 55000 nM
EC50 (N119 (Y181C mutant)): 8000 nM
EC50 (A17 (Y181C+K103N)): > 55000 nM

SMILES: Cc1cc(C)cc(Cc2nc(Sc3cccc4ccccc34)[nH]c(=O)c2C)c1 [compound 86]
EC50 [10]: 80000 nM
EC50 (N119 (Y181C mutant)): 5000 nM
EC50 (A17 (Y181C+K103N)): > 100000 nM
CC50 (mock-infected cells; Fig 9): > 100000 nM

SMILES: CCc1c(Cc2c(F)cccc2Cl)nc(SCC(=O)c2ccc(F)cc2)[nH]c1=O [compound 103]
EC50 (HIV-1 NL4-3 wt; Fig 10): 5 nM
EC50 ([7]; Fig 10): 4140 nM
Fold-resistance K103N (EC50) [7]: 828
EC50 ([1]; Fig 10): 1930 nM
Fold-resistance Y181C (EC50) [1]: 386
EC50 ([8]; Fig 10): > 57000 nM
ID50: WT ([4]; Fig 10): 33 nM
ID50: Y181I (Y181I HIV-1 RT; Fig 10): 380 nM
Fold-resistance Y181I RT (ID50) (Y181I HIV-1 RT): 12
ID50: L100I (L100I HIV-1 RT): 5600 nM
Fold-resistance L100I RT (ID50) (L100I HIV-1 RT): 170
SI (HIV-1 [3]): > 11400
CC50 (mock-infected cells; Fig 10): > 57000 nM

SMILES: CCc1c(Cc2c(F)cccc2F)nc(SCC(=O)c2ccccc2)[nH]c1=O [compound 104]
EC50 (HIV-1 NL4-3 wt; Fig 10): 12 nM
EC50 ([7]; Fig 10): 1300 nM
Fold-resistance K103N (EC50) [7]: 108
EC50 ([1]; Fig 10): 200 nM
Fold-resistance Y181C (EC50) [1]: 17
EC50 ([8]; Fig 10): > 56000 nM
ID50: WT ([4]; Fig 10): 43 nM
ID50: Y181I (Y181I HIV-1 RT; Fig 10): 820 nM
Fold-resistance Y181I RT (ID50) (Y181I HIV-1 RT): 19
ID50: L100I (L100I HIV-1 RT): 5400 nM
Fold-resistance L100I RT (ID50) (L100I HIV-1 RT): 126
SI (HIV-1 [3]): 4667
CC50 (mock-infected cells; Fig 10): 56000 nM

SMILES: CCc1c(CC2CCCCC2)nc(SCC(=O)c2ccccc2)[nH]c1=O [compound 177]
EC50 (HIV-1IIIB; read-out: EC50 anti-HIV-1 activity, further studies): 2.4 nM
EC50 (HIV-1 [3]; read-out: EC50 anti-HIV-1 activity, first report, C8166 cells): 0.012 nM
EC50 (HIV-1 [3]; read-out: EC50 vs WT HIV-1): 200 nM
EC50 [11]: 8.74 to 41.8 nM

SMILES: CCc1c(CC2CCCCC2)nc(SCC(=O)c2ccc(OP(=O)(OC)OC)cc2)[nH]c1=O [compound 179]
Water solubility with respect to 177 [12]: 17 fold
Potency against WT HIV-1 with respect to 177 (HIV-1 [3]; more potent): 20 fold
Cytotoxicity with respect to 177 (mock-infected cells; more cytotoxic): 4.5 times

pharmacokinetic properties and bioavailability (in words) [13]: acceptable
SMILES: CCc1c(CC2CCCCC2)nc(SCc2cc(-c3ccc(O)cc3)[nH]n2)[nH]c1=O [compound 180]

pharmacokinetic properties and bioavailability (in words) [13]: acceptable
SMILES: CCc1c(CC2CCCCC2)nc(SCc2cc(-c3ccc(SC)cc3)[nH]n2)[nH]c1=O [compound 181]

IC50 (HBV): 200 nM
SMILES: O=c1[nH]c(SC2O[C@H](CO)[C@H](O)[C@@H](O)[C@@H]2O)nc(Cc2ccccc2)c1Cc1ccccc1 (stereo partly drawn) [compound 185]

IC50 (HBV): 200 nM
SMILES: O=c1[nH]c(SC2OC[C@H](O)[C@@H](O)[C@@H]2O)nc(Cc2ccccc2)c1Cc1ccccc1 (stereo partly drawn) [compound 186]

SMILES: O=C(CCCCSc1nc(-c2ccc(-c3ccccc3)cc2)cc(=O)[nH]1)NO [compound 195]
outcome in in vivo malaria mouse model (malaria): failed

SMILES: COc1cc(-c2nc(SCC(=O)c3ccc(Cl)cc3)[nH]c(=O)c2C#N)ccc1OCc1ccccc1 [compound 197]
LC50: HT29 [14]: 10.1 µg/mL (≈ 19.5 µM)
LC50: HePG2 (HePG2 cells): 20.9 µg/mL (≈ 40.3 µM)
LC50: MCF7 (breast cancer MCF7 cells): 1.9 µg/mL (≈ 3.67 µM)

SMILES: N#Cc1c(-c2c(Cl)cccc2Cl)nc(SCC(=O)c2ccc(Br)cc2)[nH]c1=O [compound 199]
inhibitory effect toward HOP-92 [15]: > 50%

ZIKV EC50 (Vero cells) (ZIKV): inactive
SMILES: CCc1c(CC2CCCCC2)nc(SCC(=O)Nc2cc(F)cc(F)c2)[nH]c1=O [compound 211]
